Assay results: patent US11472791B2 (Incyte Corporation, priority 2019, dated 2022)

molecular target: CDK2/Cyclin E1 (Homo sapiens (Human), UniProt P24941); experiment: CDK2/Cyclin E1 HTRF enzyme activity assay; assay type: biochemical; details: 1 mM ATP
Experimental: Assays are conducted in white 384-well polystyrene plates in a final reaction volume of 8 μL. […] HTRF signals are read after 1 hour at room temperature on a PHERAstar FS plate reader (BMG Labtech). Data is analyzed with IDBS XLFit and GraphPad Prism 5.0 software using a three or four parameter dose response curve to determine IC50 for each compound.

IC50, < 50 nM:
N#Cc1cnc(NC2CCN(S(=O)(=O)c3ccccn3)CC2)nc1-c1cnn(CC(F)(F)F)c1 [Example 39, 2-((1-(Pyridin-2-ylsulfonyl)piperidin-4-yl)amino)-4-(1-(2,2,2-trifluoroethyl)-1H-pyrazol-4-yl)pyrimidine-5-carbonitrile]
Cn1cnc(S(=O)(=O)N2CCC(Nc3ncc(Cl)c(-c4cnn(CC(F)(F)F)c4)n3)CC2)c1 [Example 40, 5-Chloro-N-(1-((1-methyl-1H-imidazol-4-yl)sulfonyl)piperidin-4-yl)-4-(1-(2,2,2-trifluoroethyl)-1H-pyrazol-4-yl)pyrimidin-2-amine]
CO[C@H]1CC[C@H](n2cc(-c3nc(N[C@H]4CCN(S(=O)(=O)c5cn(C)cn5)C[C@H]4F)ncc3C(F)(F)F)cn2)CC1 [Example 43, N-((3R,4S)-3-Fluoro-1-((1-methyl-1H-imidazol-4-yl)sulfonyl)piperidin-4-yl)-4-(1-((trans)-4-methoxycyclohexyl)-1H-pyrazol-4-yl)-5-(trifluoromethyl)pyrimidin-2-amine]
CC(C)S(=O)(=O)N1CCC(Nc2ncc(C(F)(F)F)c(-c3cnn([C@H]4C[C@@](C)(N)C4)c3)n2)CC1 [Example 45, 4-(1-((1s,3s)-3-Amino-3-methylcyclobutyl)-1H-pyrazol-4-yl)-N-(1-(isopropylsulfonyl)piperidin-4-yl)-5-(trifluoromethyl)pyrimidin-2-amine]
C[C@]1(N)C[C@@H](n2cc(-c3nc(NC4CCN(S(=O)(=O)C5CCC5)CC4)ncc3C(F)(F)F)cn2)C1 [Example 46, 4-(1-((1s,3s)-3-Amino-3-methylcyclobutyl)-1H-pyrazol-4-yl)-N-(1-(cyclobutylsulfonyl)piperidin-4-yl)-5-(trifluoromethyl)pyrimidin-2-amine]
C[C@@H]1CN(S(=O)(=O)C2CC2)CC[C@@H]1Nc1ncc(C(F)(F)F)c(-c2cnn([C@H]3C[C@@](C)(N)C3)c2)n1 [Example 47, 4-(1-((1s,3r)-3-Amino-3-methylcyclobutyl)-1H-pyrazol-4-yl)-N-((3R,4S)-1-(cyclopropylsulfonyl)-3-methylpiperidin-4-yl)-5-(trifluoromethyl)pyrimidin-2-amine]
C[C@]1(N)C[C@@H](n2cc(-c3nc(N[C@H]4CCN(S(=O)(=O)C5CCC5)C[C@H]4F)ncc3C(F)(F)F)cn2)C1 [Example 48, 4-(1-((1s,3r)-3-Amino-3-methylcyclobutyl)-1H-pyrazol-4-yl)-N-((3R,4S)-1-(cyclobutylsulfonyl)-3-fluoropiperidin-4-yl)-5-(trifluoromethyl)pyrimidin-2-amine]
CN[C@H]1C[C@@H](n2cc(-c3nc(NC4CCN(S(=O)(=O)c5ccccn5)CC4)ncc3C(F)(F)F)cn2)C1 [Example 49, 4-(1-((1s,3s)-3-(Methylamino)cyclobutyl)-1H-pyrazol-4-yl)-N-(1-(pyridin-2-ylsulfonyl)piperidin-4-yl)-5-(trifluoromethyl)pyrimidin-2-amine]
CN[C@H]1C[C@H](n2cc(-c3nc(NC4CCN(S(=O)(=O)c5ccccn5)CC4)ncc3C(F)(F)F)cn2)C1 [Example 50, 4-(1-((1r,3r)-3-(Methylamino)cyclobutyl)-1H-pyrazol-4-yl)-N-(1-(pyridin-2-ylsulfonyl)piperidin-4-yl)-5-(trifluoromethyl)pyrimidin-2-amine]
CC(C)(O)Cn1cc(-c2nc(NC3CCN(S(C)(=O)=O)CC3)ncc2C(F)(F)F)cn1 [Example 52, 2-Methyl-1-(4-(2-((1-(methylsulfonyl)piperidin-4-yl)amino)-5-(trifluoromethyl)pyrimidin-4-yl)-1H-pyrazol-1-yl)propan-2-ol]
CCS(=O)(=O)N1CCC(Nc2ncc(C(F)(F)F)c(-c3cnn(CC(C)(C)O)c3)n2)CC1 [Example 53, 1-(4-(2-((1-(Ethylsulfonyl)piperidin-4-yl)amino)-5-(trifluoromethyl)pyrimidin-4-yl)-1H-pyrazol-1-yl)-2-methylpropan-2-ol]
CC(C)(O)Cn1cc(-c2nc(NC3CCN(S(=O)(=O)c4ccccn4)CC3)ncc2C#N)cn1 [Example 55, 4-(1-(2-Hydroxy-2-methylpropyl)-1H-pyrazol-4-yl)-2-((1-(pyridin-2-ylsulfonyl)piperidin-4-yl)amino)pyrimidine-5-carbonitrile]
CC(C)(O)Cn1cc(-c2nc(NC3CCN(S(=O)(=O)C4CC4)CC3)ncc2Cl)cn1 [Example 56, 1-(4-(5-Chloro-2-((1-(cyclopropylsulfonyl)piperidin-4-yl)amino)pyrimidin-4-yl)-1H-pyrazol-1-yl)-2-methylpropan-2-ol]
CC(C)(O)Cn1cc(-c2nc(N[C@H]3CCN(S(=O)(=O)C4CC4)C[C@H]3F)ncc2C(F)(F)F)cn1 [Example 57, 1-(4-(2-(((3R,4S)-1-(Cyclopropylsulfonyl)-3-fluoropiperidin-4-yl)amino)-5-(trifluoromethyl)pyrimidin-4-yl)-1H-pyrazol-1-yl)-2-methylpropan-2-ol]
CC(C)(O)Cn1cc(-c2nc(N[C@H]3CCN(S(C)(=O)=O)C[C@H]3F)ncc2C(F)(F)F)cn1 [Example 58, 1-(4-(2-(((3R,4S)-3-Fluoro-1-(methylsulfonyl)piperidin-4-yl)amino)-5-(trifluoromethyl)pyrimidin-4-yl)-1H-pyrazol-1-yl)-2-methylpropan-2-ol]
C[C@@H]1CN(S(=O)(=O)C2CC2)CC[C@@H]1Nc1ncc(C(F)(F)F)c(-c2cnn(CC(C)(C)O)c2)n1 [Example 59, 1-(4-(2-(((3R,4S)-1-(Cyclopropylsulfonyl)-3-methylpiperidin-4-yl)amino)-5-(trifluoromethyl)pyrimidin-4-yl)-1H-pyrazol-1-yl)-2-methylpropan-2-ol]
C[C@@H]1CN(S(=O)(=O)c2cnn(C)c2)CC[C@@H]1Nc1ncc(C(F)(F)F)c(-c2cnn(CC(C)(C)O)c2)n1 [Example 60, 2-Methyl-1-(4-(2-(((3R,4S)-3-methyl-1-((1-methyl-1H-pyrazol-4-yl)sulfonyl)piperidin-4-yl)amino)-5-(trifluoromethyl)pyrimidin-4-yl)-1H-pyrazol-1-yl)propan-2-ol]
C[C@@H]1CN(S(=O)(=O)c2cn(C)cn2)CC[C@@H]1Nc1ncc(C(F)(F)F)c(-c2cnn(CC(C)(C)O)c2)n1 [Example 61, 2-Methyl-1-(4-(2-(((3R,4S)-3-methyl-1-((1-methyl-1H-imidazol-4-yl)sulfonyl)piperidin-4-yl)amino)-5-(trifluoromethyl)pyrimidin-4-yl)-1H-pyrazol-1-yl)propan-2-ol]
C[C@@H]1CN(S(=O)(=O)c2ccccn2)CC[C@@H]1Nc1ncc(C(F)(F)F)c(-c2cnn(CC(C)(C)O)c2)n1 [Example 62, 2-Methyl-1-(4-(2-(((3R,4S)-3-methyl-1-(pyridin-2-ylsulfonyl)piperidin-4-yl)amino)-5-(trifluoromethyl)pyrimidin-4-yl)-1H-pyrazol-1-yl)propan-2-ol]
CC(C)(O)Cn1cc(-c2nc(NC3CCN(S(=O)(=O)CCCN4CCOCC4)CC3)ncc2C(F)(F)F)cn1 [Example 63, 2-Methyl-1-(4-(2-((1-((3-morpholinopropyl)sulfonyl)piperidin-4-yl)amino)-5-(trifluoromethyl)pyrimidin-4-yl)-1H-pyrazol-1-yl)propan-2-ol]
CCN(CC)CCCS(=O)(=O)N1CCC(Nc2ncc(C(F)(F)F)c(-c3cnn(CC(C)(C)O)c3)n2)CC1 [Example 64, 1-(4-(2-((1-((3-(Diethylamino)propyl)sulfonyl)piperidin-4-yl)amino)-5-(trifluoromethyl)pyrimidin-4-yl)-1H-pyrazol-1-yl)-2-methylpropan-2-ol]
CC(C)(O)Cn1cc(-c2nc(NC3CCN(S(=O)(=O)CCCN4CCCC4)CC3)ncc2C(F)(F)F)cn1 [Example 66, 2-Methyl-1-(4-(2-((1-((3-(pyrrolidin-1-yl)propyl)sulfonyl)piperidin-4-yl)amino)-5-(trifluoromethyl)pyrimidin-4-yl)-1H-pyrazol-1-yl)propan-2-ol]
CC(C)(O)Cn1cc(-c2nc(NC3CCN(S(=O)(=O)CCCN4CCCCC4)CC3)ncc2C(F)(F)F)cn1 [Example 67, 2-Methyl-1-(4-(2-((1-((3-(piperidin-1-yl)propyl)sulfonyl)piperidin-4-yl)amino)-5-(trifluoromethyl)pyrimidin-4-yl)-1H-pyrazol-1-yl)propan-2-ol]
CN1CCN(CCCS(=O)(=O)N2CCC(Nc3ncc(C(F)(F)F)c(-c4cnn(CC(C)(C)O)c4)n3)CC2)CC1 [Example 68, 2-Methyl-1-(4-(2-((1-((3-(4-methylpiperazin-1-yl)propyl)sulfonyl)piperidin-4-yl)amino)-5-(trifluoromethyl)pyrimidin-4-yl)-1H-pyrazol-1-yl)propan-2-ol]
CC(C)(O)Cn1cc(-c2nc(NC3CCN(S(=O)(=O)CCCN4CCNC(=O)C4)CC3)ncc2C(F)(F)F)cn1 [Example 69, 4-(3-((4-((4-(1-(2-Hydroxy-2-methylpropyl)-1H-pyrazol-4-yl)-5-(trifluoromethyl)pyrimidin-2-yl)amino)piperidin-1-yl)sulfonyl)propyl)piperazin-2-one]
CN1CCN(CCCS(=O)(=O)N2CCC(Nc3ncc(C(F)(F)F)c(-c4cnn(CC(C)(C)O)c4)n3)CC2)CC1=O [Example 70, 4-(3-((4-((4-(1-(2-Hydroxy-2-methylpropyl)-1H-pyrazol-4-yl)-5-(trifluoromethyl)pyrimidin-2-yl)amino)piperidin-1-yl)sulfonyl)propyl)-1-methylpiperazin-2-one]
